Data taken from article PMC9104013, “Role of Polyamine-Induced Dimerization of Antizyme in Its Cellular Functions” (International Journal of Molecular Sciences, 2022).

Columns and labels:
[1] = system: polyamine uptake in OAZ1-overexpressing DU145 cells; test: [14C]-Put and -Spd uptake in OAZ1-overexpressing DU145 cells; type: cell-based; conditions: DFMO 5 mM 3 days, DOX 1 μg/mL 2 days, analogue 100 μM 4 h with APCHA 50 μM, AG 1 mM; 20 min uptake
Protocol: OAZ1-overexpressing DU145 cells were plated onto 6-well plates and incubated overnight. The cells were first treated with DFMO (5 mM) for 3 days, after which DOX (1 μg/mL) was added for further 2 days to induce OAZ1 overexpression. Then, AG (1 mM), APCHA (50 μM), and Spd/analogue (100 μM) were added for 4 h. The plates were washed with warm DMEM and incubated for 20 min in [^14C]-Put or [^14C]-Spd labeling mix (10 μM Put/Spd, specific activity 25 mCi/mmol, in DMEM). The plates were washed twice with ice-cold PBS and lysed to 0.5 mL of 0.1 M NaOH. An aliquot was taken for measurement of ^14C radioactivity, and the counts were normalized to total protein in the sample.

[2] = system: OAZ1-overexpressing DU145 cells; test: Uptake of Spd and its analogues in OAZ1-overexpressing DU145 cells; type: cell-based; conditions: DOX 250 ng/mL 24 h, compounds 100 µM, 6 h
Protocol: Figure 3 2-MeSpd is the weakest inducer of OAZ1 synthesis and the weakest downregulator of ODC in DU145 cells. (A) Uptake of Spd and its analogues in CHX-treated DU145 cells. After 2 h preincubation with CHX (100 µg/mL), the compounds (100 µM) were added, and incubation continued for 4 h before the analysis of the intracellular analogue concentration. (B) Uptake of Spd and its analogues in OAZ1-overexpressing DU145 cells. OAZ1 was induced by 24 h preincubation with DOX (250 ng/mL). The compounds (100 µM) were added for further 6 h before the analysis of intracellular analogue concentration. (C) Effect of Spd and the analogues on OAZ1 protein levels in DU145 cells. The cells were incubated for 4 h with 100 μM analogues in the presence of the proteasomal inhibitor, MG132 (25 μM). (D) Effect of Spd and the analogues on ODC activity in DU145 cells. […]
Polyamines were measured with HPLC according to the published method. Acid-precipitated pellets were dissolved to 0.1 M NaOH, and the amount of DNA was measured using the PicoGreen reagent (Invitrogen) according to manufacturer’s instructions using dilutions of calf thymus DNA (Sigma-Aldrich) as standard curve. Protein concentrations were measured using Bio-Rad protein kit with dilutions of bovine serum albumin (Bio-Rad, Hercules, CA, USA) as standards. ODC activities were measured from the cytosolic fractions as described earlier. […]

CC(CN)CNCCCCN (stereo not drawn) [2-MeSpd] was tested, and the “Downregulation of [^14C]-Put uptake” value [1] was “weakest downregulation”, the “Downregulation of [^14C]-Spd uptake” value [1] was “weakest downregulation” and the “Uptake upon DOX-induced expression of OAZ1” value [2] was “reduced the uptake”.
